# According to patent US12606520B2, “Calpain-2 inhibitor compounds and methods of treatment” (WESTERN UNIVERSITY OF HEALTH SCIENCES, priority 2020, dated 2026):
# Where two headings read alike, the source gives them in different places.
# What was measured:
# [1] = PK in mice after iv injection of liposomal NA112: brain; format: in vivo; details: mouse; for concentration at 1 min / concentration at 5 min / concentration at 0.25 h / concentration at 0.5 hr / concentration at 1 hr / concentration at 2 h / concentration at 4 h / concentration at 8 h / concentration at 16 h: iv, 10 mg/kg, mice iv 10 mg/kg liposomes; for concentration at 1 min: 0.0167 hr; for concentration at 5 min: 0.0833 hr
# Procedure: (§1) NA112 was prepared in liposomes at a concentration of 1.5 mg/ml. Mice were injected in the tail vein with 200 μl of NA112 in liposomes (corresponding to a dose of 10 mg/kg) and were sacrificed at the following time-points: 1, 5, 15, 30 min, 1, 2, 4, 8, 16 and 24 h. Blood was collected and plasma rapidly prepared by centrifugation. Brains were also collected. NA112 in plasma and in brain homogenates was assayed with LC/Ms and the sensitivity of the assay was 1 ng/ml. Experiments were performed in duplicate (A1 and A2 in Table 3). Results were averaged for preparing the figure and calculating the half-life of NA112 in plasma and in brain.
# Data from table 4 are plotted as a function of time. While the curve is not easily fitted with a 2-compartment model, the slower component appears to have a half-life of about 3 h.
# [2] = PK in mice after iv injection of liposomal NA112: plasma; format: in vivo; details: for concentration at 0.0167 hr / concentration at 0.0833 hr / concentration at 0.25 hr / concentration at 0.5 hr / concentration at 1 hr / concentration at 2 hr / concentration at 4 hr / concentration at 8 hr / concentration at 16 hr / concentration at 24 hr: iv, 10 mg/kg, mice iv 10 mg/kg liposomes
# Procedure: as §1
# A two-compartment model was used to analyze the data from FIG. 14. This assumes that there is a rapid distribution of the drug from the plasma to various organs, followed by a slower elimination of the drug form the plasma. […] In FIG. 16, changes in NA112 plasma concentrations fitted with the 2-compartment model. The data from FIG. 14 are fitted with the 2-compartment model equation, showing the very good fit between the predicted values and the observed values.
# [3] = read-out: Brain concentration A1
# [4] = read-out: Brain concentration A2
# [5] = read-out: Brain concentration Mean
# [6] = 2-compartmental model, mice iv 10 mg/kg in liposomes
# [7] = mouse, read-out: Plasma concentration A1
# [8] = mouse, read-out: Plasma concentration A2
# [9] = mouse, read-out: Plasma concentration Mean
smiles,measurement,setting,value
"CCC(NC(=O)[C@H](CC(C)C)NC(=O)NCc1ccccc1)C(=O)C(=O)NCc1cc(OC)cc(OC)c1 (mixture of isomers) [NA112, (2S)-2-(3-benzylureido)-N-(1-((3,5-dimethoxybenzyl)amino)-1,2-dioxopentan-3-yl)-4-methylpentanamide]",concentration at 1 min,[1]; [3],520 ng/mL
same,concentration at 1 min,[1]; [4],305 ng/mL
same,concentration at 1 min,[1]; [5],412 ng/mL
same,concentration at 5 min,[1]; [3],168 ng/mL
same,concentration at 5 min,[1]; [4],129 ng/mL
same,concentration at 5 min,[1]; [5],149 ng/mL
same,concentration at 0.25 h,[1]; [3],106 ng/mL
same,concentration at 0.25 h,[1]; [4],62.3 ng/mL
same,concentration at 0.25 h,[1]; [5],84.4 ng/mL
same,concentration at 0.5 hr,[1]; [3],60.6 ng/mL
same,concentration at 0.5 hr,[1]; [4],63.4 ng/mL
same,concentration at 0.5 hr,[1]; [5],62 ng/mL
same,concentration at 1 hr,[1]; [3],45.6 ng/mL
same,concentration at 1 hr,[1]; [4],48.4 ng/mL
same,concentration at 1 hr,[1]; [5],47 ng/mL
same,concentration at 2 h,[1]; [3],25.9 ng/mL
same,concentration at 2 h,[1]; [4],30.9 ng/mL
same,concentration at 2 h,[1]; [5],28.4 ng/mL
same,concentration at 4 h,[1]; [3],14 ng/mL
same,concentration at 4 h,[1]; [4],21.3 ng/mL
same,concentration at 4 h,[1]; [5],17.6 ng/mL
same,concentration at 8 h,[1]; [3],19.5 ng/mL
same,concentration at 8 h,[1]; [4],15.4 ng/mL
same,concentration at 8 h,[1]; [5],17.4 ng/mL
same,concentration at 16 h,[1]; [3],6.65 ng/mL
same,concentration at 16 h,[1]; [4],9.41 ng/mL
same,concentration at 16 h,[1]; [5],8.03 ng/mL
same,half-life,"[1]; mice, iv 10 mg/kg in liposomes, read-out: Half-life of slower component in brain (converted)",~3 h
same,A,[2]; [6],28944.68 ng/mL
same,B,[2]; [6],42.70 ng/mL
same,T½α,[2]; [6],0.23 h
same,T½β,[2]; [6],7.80 h
same,α,[2]; [6],3.01 h⁻¹
same,β,[2]; [6],0.09 h⁻¹
same,half-life,"[2]; mouse, 2-compartment model, mice iv 10 mg/kg in liposomes",7.8 h
same,AUC from zero to infinity,"[2]; mouse, 2-compartmental model, mice iv 10 mg/kg in liposomes, read-out: AUC0-00",17000 ng·h/mL
same,concentration at 0.0167 hr,[2]; [7],45300 ng/mL
same,concentration at 0.0167 hr,[2]; [8],63500 ng/mL
same,concentration at 0.0167 hr,[2]; [9],54400 ng/mL
same,concentration at 0.0833 hr,[2]; [7],116000 ng/mL
same,concentration at 0.0833 hr,[2]; [8],69100 ng/mL
same,concentration at 0.0833 hr,[2]; [9],92300 ng/mL
same,concentration at 0.25 hr,[2]; [7],2120 ng/mL
same,concentration at 0.25 hr,[2]; [8],939 ng/mL
same,concentration at 0.25 hr,[2]; [9],1530 ng/mL
same,concentration at 0.5 hr,[2]; [7],6760 ng/mL
same,concentration at 0.5 hr,[2]; [8],432 ng/mL
same,concentration at 0.5 hr,[2]; [9],3590 ng/mL
same,concentration at 1 hr,[2]; [7],5550 ng/mL
same,concentration at 1 hr,[2]; [8],390 ng/mL
same,concentration at 1 hr,[2]; [9],2970 ng/mL
same,concentration at 2 hr,[2]; [7],107 ng/mL
same,concentration at 2 hr,[2]; [8],84 ng/mL
same,concentration at 2 hr,[2]; [9],95.5 ng/mL
same,concentration at 4 hr,[2]; [7],34.6 ng/mL
same,concentration at 4 hr,[2]; [8],30 ng/mL
same,concentration at 4 hr,[2]; [9],32.3 ng/mL
same,concentration at 8 hr,[2]; [7],17.4 ng/mL
same,concentration at 8 hr,[2]; [8],20.6 ng/mL
same,concentration at 8 hr,[2]; [9],19 ng/mL
same,concentration at 16 hr,[2]; [7],10.8 ng/mL
same,concentration at 16 hr,[2]; [8],9.79 ng/mL
same,concentration at 16 hr,[2]; [9],10.3 ng/mL
same,concentration at 24 hr,[2]; [7],5.63 ng/mL
same,concentration at 24 hr,[2]; [8],4.67 ng/mL
same,concentration at 24 hr,[2]; [9],5.15 ng/mL
